The values below come from PMC10212518 (Biochemical Journal, 2023).

For the assay, the system named is MDF cells expressing the MLKL Q343A mutant. In words: Phenotypic screen: MLKL Q343A-induced cell death, CellTiter-Glo cell viability. It counts as cell-based, mouse. The conditions noted are these: 1 µM; wild-type or Mlkl−/− MDF cells; doxycycline 1 µg/ml. How it is done: The phenotypic screen was performed as previously described. Briefly, 5632 compounds from an in-house (WEHI) small molecule library and 40 well-characterised kinase inhibitors were screened against MDF cells expressing the MLKL Q343A mutant. For the 5632 compounds from the WEHI library, 384-well white clear-bottom plates (Corning) containing the compounds (10 µM) were prepared at Compounds Australia. WT MDF cells expressing MLKL Q343A were seeded at 2.0 × 10^3 cells per well into the plates using the Nanodrop Nano-Dispensing Liquid Handler (Gilson) and incubated with the compounds for 2 h, prior to the addition of doxycycline (1 µg/ml) to induce expression of the MLKL Q343A protein. After 24 h, cell viability was determined using the CellTiter-Glo Assay (Promega) by measuring luminescence using an EnVision plate reader (PerkinElmer). For the 40 kinase inhibitors, WT and Mlkl^−/− MDF cells expressing MLKL Q343A were seeded at 5.0 × 10^3 cells per well in 96-well plates and allowed to settle for ∼6 h at 37°C 10% CO2. […] After 18 h, cell viability was determined using the CellTiter-Glo Assay (Promega) by measuring luminescence using an EnVision plate reader (PerkinElmer). Raw luminescence data were normalised to the uninduced (no doxycycline) controls (100% cell viability) using GraphPad Prism.
In general terms: ATP-based viability assays read luminescence as a measure of living cells.

Structures are written as SMILES.

`Cc1ccc(F)c(NC(=O)Nc2ccc(-c3cccc4[nH]nc(N)c34)cc2)c1` [ABT-869, N-(4-(3-amino-1H-indazol-4-yl)phenyl)-N'-(2-fluoro-5-methylphenyl)urea]: the “inhibition of necroptosis induced by expression of MLKL Q343A (cell viability, CellTiter-Glo)” value is “attenuated necroptosis”.
